From patent EP4635969A1, “NOVEL GLUCOCORTICOID, METHOD FOR PREPARING SAME, AND USE THEREOF” (Tianjin Pharmaceutical Biotechnology Co., Ltd., priority 2022, dated 2024)

Key:
epidermal layer in rats = assay: Adverse reactions of continuous dermal administration: thickness of the epidermal layer (H&E sections); type: in vivo, SD rats; settings: compared with the blank control group
From the text: Pharmacological Example 10: Experiment on Adverse Reactions of Continuous Dermal Administration in Rats
Animals: SD rats, SPF grade, with an equal number of males and females, weighing 230-250 g.
Animal grouping: After adaptive feeding, the rats were randomly divided into 4 groups. […] One day before administration, the backs of rats were shaved at an area of 5 cm × 6 cm. […] The rats in the blank control group were applied with the blank matrix of corresponding mass on their backs, twice a day for a consecutive week. Table 21. Animal grouping and drug administration dosages for the experiment on adverse reactions of continuous dermal administration in rats
To examine the effects of continuous administration of the test samples on the epidermal layer, the back skin tissues were stained with hematoxylin and eosin (H&E) (magnification ×40), and the thickness of the epidermal layer was quantitatively measured based on the H&E-stained sections.

psoriasis model mice = assay: Psoriasis experiment (imiquimod model): skin lesion (PASI) score; type: in vivo; settings: compared with the model group
Experimental: (§1) Positive control drug: Fluticasone Propionate Cream (specification: 0.05% × 15 g, Zhejiang Xianju Pharmaceutical Co. Ltd., Lot No. 211106), stored at room temperature protected from light until use.
(§2) Adult mice were selected, and the skin of 2 cm × 3 cm on the back of mice was locally depilated. The mice in the model group and drug administration group were applied with 62.5 mg of 5% imiquimod cream on their back for modeling, while the mice in the blank control group were applied with medical petroleum jelly on their back daily. The above procedures were performed once a day for 7 consecutive days.
(§3) The mice in the drug administration group were applied with the corresponding drugs on their backs daily at a dose of 0.2 g per mouse, while the blank control group and the model group were only applied with 0.2 g of the test sample drug matrix. One hour after drug administration, the drugs were wiped off with sterile cotton swabs, followed by the application of imiquimod. The above procedures were performed once a day for 7 consecutive days.
Referring to the clinical Psoriasis Area and Severity Index (PASI) scoring criteria, erythema, scaling, and thickness at the skin lesion sites were evaluated on a 0-4 scale on day 8 of modeling, and the total score was obtained by summing the three items.
• (1) Erythema: a score of 0 points indicates no erythema, a score of 1 point indicates erythema appearing light red, a score of 2 points indicates erythema appearing red, a score of 3 points indicates erythema appearing dark red, and a score of 4 points indicates erythema appearing extremely deep red; • (2) Scaling: a score of 0 points indicates no scaling on the surface, a score of 1 point indicates partial skin lesions covered with scaling, a score of 2 points indicates most skin lesions covered with scaling, a score of 3 points indicates almost all skin lesions covered with scaling in layers, and a score of 4 points indicates all skin lesions covered with scaling; • (3) Thickness: a score of 0 points indicates skin lesions flush with normal skin, a score of 1 point indicates skin lesions slightly elevated above normal skin surface, a score of 2 points indicates moderate elevation of skin lesions, a score of 3 points indicates thickened skin lesions with obvious elevation, and a score of 4 points indicates highly thickened skin lesions with prominent elevation.
(§4) Statistical analysis was performed using SPSS software, and the results were expressed as mean ± standard deviation. One-way ANOVA was used for intergroup comparisons. For data with homogeneous variance, the LSD test was used; for data with heterogeneous variance, the Dunnett-t test was used. A value of P < 0.05 was considered statistically significant.

[1] = test system: inflammatory cytokines IL-6 and IL-12; assay: Anti-asthma pharmacodynamic experiment: inflammatory cytokines in bronchoalveolar lavage fluid (ELISA); type: in vivo, female BALB/c mice; settings: compared with the model group
Experimental: Pharmacological Example 4: Pharmacodynamic Experiment on Anti-Asthma
The suspensions were stored at room temperature protected from light until use.
Positive control drug: Budesonide Suspension for Inhalation (specification: 2 mL: 1 mg; AstraZeneca Inc.; Lot No. : 327392) was diluted with injection-grade sodium chloride solution to 0.3 mg/ml as the positive control drug, and stored at room temperature protected from light until use.
Sixty female BALB/c mice underwent a one-week adaptive feeding period. Ten mice were randomly selected as the blank control group, while 50 mice were selected to establish asthma models.
From days 21 to 23 after sensitization, the mice in the model group and drug administration group were exposed to a 30-minute aerosol challenge with 5% OVA, while the mice in the blank control group were exposed to normal saline aerosol for the same duration.
At the end of airway hyperresponsiveness testing in mice, the mice were euthanized by cervical dislocation and fixed on a dissection tray. The abdomens and thoracic cavities of the mice were opened, and the skin and excess tissues of the neck were excised to expose the trachea of the mice. A small incision was made transversely on the trachea with a small scissors. A pre-treated 1 mL syringe needle was inserted and fastened with surgical thread. A 1 mL syringe was used to slowly inject 0.5 mL of pre-chilled phosphate-buffered saline (PBS) into the lungs of the mice, followed by slow aspiration. Each mouse was lavaged once, and a total of approximately 0.4 ml of lavage fluid was collected. The bronchoalveolar lavage fluid was centrifuged at 3000 rpm for 5 min. After centrifugation, the supernatant was aliquoted, and the levels of inflammatory cytokines IL-6 and IL-12 in the bronchoalveolar lavage fluid were determined using ELISA kits.
Statistical analysis was performed using SPSS software. Measurement data were expressed as mean ± standard deviation. One-way ANOVA was used for intergroup comparisons. For data with homogeneous variance, LSD test was used; for data with heterogeneous variance, Dunnett-t test was used. A value of P < 0.05 was considered statistically significant.

[2] = Pharmacokinetic (PK) experiment in rats; type: in vivo, male SD rats; settings: same experimental conditions
Summary of the method: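 Male SD rats dosed by body weight, oral group fasted overnight until 4 h post-dose. Jugular blood sampled 2 min–24 h into heparin; plasma analysed and PK parameters derived from concentration–time data.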

uveitis model rats = assay: Anti-uveitis pharmacodynamic experiment (LPS model): ocular pathological score; type: in vivo, male SD rats; settings: compared with the model group
[3] = biological target: T1, mineralocorticoid receptor (MR) (Homo sapiens, UniProt P08235); assay: Assay for agonist activity on mineralocorticoid receptor (luciferase reporter, HEK293 cells transfected with pBIND-MR plasmid); type: cell-based; settings: for Target selectivity MR/GR: ratio of EC50 values; for target selectivity: MR/GR and PR/GR, same experimental conditions
T1 sequence (P08235 726-984): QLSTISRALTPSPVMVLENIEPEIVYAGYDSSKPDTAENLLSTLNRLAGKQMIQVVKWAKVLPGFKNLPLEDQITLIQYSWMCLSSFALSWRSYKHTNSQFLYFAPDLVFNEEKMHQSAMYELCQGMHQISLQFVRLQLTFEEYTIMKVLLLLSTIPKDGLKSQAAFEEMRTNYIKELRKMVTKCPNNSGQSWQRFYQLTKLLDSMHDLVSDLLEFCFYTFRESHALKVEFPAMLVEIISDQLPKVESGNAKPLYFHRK
Summary of the method: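 HEK293 cells transiently transfected with pBIND-MR or pBIND-PR, seeded in phenol red-free DMEM with 5% charcoal-stripped serum. Compounds tested as 12-point 4-fold dilutions from 50 µM in duplicate, 0.1% DMSO blank. Luciferase luminescence read, EC50 by nonlinear fit.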

IL-17 = assay: Psoriasis experiment (imiquimod model): inflammatory cytokine in serum (ELISA); type: in vivo, mice; settings: compared with the model group
Experimental: as §1, §2, §3
After the PASI scoring on day 8 of modeling, blood was collected from the orbital sinus of mice and centrifuged at 3000 rpm for 10 min. The supernatant was extracted to measure the level of IL-17. All procedures were performed following the instructions of the ELISA kit.
as §4

| SMILES | thickness of the epidermal layer after continuous dermal administration (epidermal layer in rats) | PASI scores (psoriasis model mice) | Effects on inflammatory cytokines in bronchoalveolar lavage fluid of mice [1] | pharmacokinetic properties (plasma clearance rate, systemic exposure) [2] | ocular abnormalities / ocular pathological score (uveitis model rats) | EC50 [3] [µM] | Target selectivity MR/GR [3] | level of IL-17 / inflammatory cytokines in psoriasis model mice (IL-17) | target selectivity [3] |
| --- | --- | --- | --- | --- | --- | --- | --- | --- | --- |
| C[C@]12C=CC(=O)C=C1CC[C@H]1[C@@H]3C[C@H]4OC(c5ccc(CSC6CCOC6=O)nc5)O[C@@]4(C(=O)CO)[C@@]3(C)C[C@H](O)[C@@]12F (stereo partly drawn) [Compound 47, (6aS,6bR,7S,8aS,8bS,11aR,12aS,12bS)-6b-Fluoro-7-hydroxy-8b-(2-hydroxyacetyl)-6a,8a-dimethyl-10-(6-(((2-oxotetrahydrofuran-3-yl)thio)methyl)pyridin-3-yl)-1,2,6a,6b,7,8,8a,8b,11a,12,12a,12 b-dodecahydro-4H-naphtho[2',1':4,5]indeno[1,2-d][1,3]dioxol-4-one] | no significant changes in the thickness of the epidermal layer observed | significantly decreased PASI scores on day 7 | pharmacological effects similar to those of compound 23 | pharmacokinetic properties similar to those of compound 8 | significantly improved ocular abnormalities | > 50 | > 1.5×10^5 | significantly inhibited inflammatory cytokines in the skin of psoriasis model mice |  |
| C[C@]12C=CC(=O)C=C1CC[C@H]1[C@@H]3C[C@H]4OC(c5ccc(CSC6CCOC6=O)cn5)O[C@@]4(C(=O)CO)[C@@]3(C)C[C@H](O)[C@@]12Cl (stereo partly drawn) [Compound 51, (6aS,6bR,7S,8aS,8bS,11aR,12aS,12bS)-6b-Chloro-7-hydroxy-8b-(2-hydroxyacetyl)-6a,8a-dimethyl-10-(5-(((2-oxotetrahydrofuran-3-yl)thio)methyl)pyridin-2-yl)-1,2,6a,6b,7,8,8a,8b,11a,12,12a,12 b-dodecahydro-4H-naphtho[2',1':4,5]indeno[1,2-d][1,3]dioxol-4-one] | no significant changes in the thickness of the epidermal layer observed | significantly decreased PASI scores on day 7 | pharmacological effects similar to those of compound 23 | pharmacokinetic properties similar to those of compound 8 | significantly improved ocular abnormalities |  |  | significantly inhibited inflammatory cytokines in the skin of psoriasis model mice | target selectivity comparable to that of compound 23 |
| C[C@]12C=CC(=O)C=C1CC[C@H]1[C@@H]3C[C@H]4OC(c5ccc(CSC6COC(=O)C6)cc5Cl)O[C@@]4(C(=O)CO)[C@@]3(C)C[C@H](O)[C@@]12F (stereo partly drawn) [Compound 20, (6aS,6bR,7S,8aS,8bS,11aR,12aS,12bS)-10-(2-Chloro-4-(((5-oxotetrahydrofuran-3-yl)thio)methyl)phenyl)-6b-fluoro-7-hydroxy-8b-(2-hydroxyacetyl)-6a,8a-dimethyl-1,2,6a,6b,7,8,8a,8b,11a,12,12a, 12b-dodecahydro-4H-naphtho[2',1':4,5]indeno[1,2-d][1,3]dioxol-4-one] | no significant changes in the thickness of the epidermal layer observed | significantly decreased PASI scores on day 7 | pharmacological effects similar to those of compound 23 | pharmacokinetic properties similar to those of compound 8 | significantly improved ocular abnormalities |  |  | significantly inhibited inflammatory cytokines in the skin of psoriasis model mice | target selectivity comparable to that of compound 23 |
| C[C@]12C=CC(=O)C=C1CC[C@H]1[C@@H]3C[C@H]4OC(c5ccc(COC6CCOC6=O)cc5)O[C@@]4(C(=O)CO)[C@@]3(C)C[C@H](O)[C@@]12F (stereo partly drawn) [Compound 16, (6aS,6bR,7S,8aS,8bS,11aR,12aS,12bS)-6b-Fluoro-7-hydroxy-8b-(2-hydroxyacetyl)-6a,8a-dimethyl-10-(4-(((2-oxotetrahydrofuran-3-yl)oxy)methyl)phenyl)-1,2,6a,6b,7,8,8a,8b,11a,12,12a,12b-do decahydro-4H-naphtho[2',1':4,5]indeno[1,2-d][1,3]dioxol-4-one] | no significant changes in the thickness of the epidermal layer observed | significantly decreased PASI scores on day 7 | pharmacological effects similar to those of compound 23 | pharmacokinetic properties similar to those of compound 8 | significantly improved ocular abnormalities | > 50 | > 1.2×10^5 | significantly inhibited inflammatory cytokines in the skin of psoriasis model mice |  |
